Measurements published in patent US20120208848A1 (NEUROSYSTEC CORPORATION, priority 2005, published 2012).

What was measured:
Format in all cases: physicochemical
[1] = Solubility of gacyclidine as a function of pH and excipients, room temperature, glass vials
Procedure: Thereafter the mixture remained standing at room temperature for two days.
The pH of the mixture was determined by use of a SympHony glass calomel micro combination pH electrode obtained from VWR (Cat. No. 14002-776). Oakton standard reference solutions at pH 7.00±0.01 (25° C.; 7.02 at 20° C.), 4.01±0.01 (25° C.; 4.00 at 20° C.) and 10.00 (25° C.; 10.05 at 20° C.) were obtained from Cole-Parmer. These standard pH solutions were used to calibrate a Cole-Parmer Model 5996-60 analog pH meter equipped with a SympHony electrode to within 0.01 pH units of reference solutions.

[2] = Effect of pH and polysorbate 80 on gacyclidine stability in Ringer's solution at 55° C.
Procedure: These samples were then incubated at 55° C. for 24 hours. […] The pH of each sample was determined at 55° C. by use of a pH meter standardized at 55° C. The pH meter, electrode and standards were the same as described in Example 3.

[3] = Gacyclidine decomposition in Ringer's Lactate at 37° C.
Procedure: To monitor piperidine formation a Zorbax SB-CN column (25×0.46 cm, 5 μm; PN 880975, SN USS F01 3866) purchased from Agilent Technologies was maintained at 30° C. and eluted with a mixture composed of 50% Buffer A and 50% Buffer B at 150 μL/minute for 60 minutes. Buffer A was composed of water containing 0.1% trifluoroacetic acid and Buffer B was composed of acetonitrile containing 0.1% trifluoroacetic acid. The effluent from this column was interfaced with an AQA single quadrupole mass spectrometer (Thermo Electron) and a Surveyor PDA detector (UV monitor, Thermo Electron). The column effluent was monitored at 232 nm and scans were collected between 200 to 300 nm by use of the PDA detector. […] Piperidine was detected by the mass spectrometer at 16.0 minutes after injection onto the Zorbax SB-CN column (at m/z=86 only). Piperidine could not be detected by use of the PDA (UV monitor).
The pH of these Ringer's Lactate solutions was adjusted by addition of hydrochloric acid or sodium bicarbonate ([…]). […] To analyze these samples for gacyclidine and piperidine, the samples were first extracted with methylene chloride and then back-extracted into dilute hydrochloric acid. To the 0.40 mL sample to be analyzed were added 50 μL of 1.0 M sodium hydroxide and 0.8 mL of methylene chloride. After vigorous mixing, the aqueous and methylene chloride layers were allowed to separate. To 0.4 mL of the methylene chloride phase were added 20 μL of 1.0 M hydrochloric acid and 0.78 mL of water. After vigorous mixing, the aqueous and methylene chloride layers were allowed to separate and the aqueous layer was analyzed for gacyclidine and piperidine. This extraction procedure was necessary to remove the salt present in the sample for optimum detection of piperidine.

[4] = Effect of pH on gacyclidine decomposition and solubility in Ringer's solution at 55° C.; conditions: 100 μM in Ringer's solution, 24 hours, pH 7.3 to 8.1, no excipient
Procedure: These samples were then incubated at 55° C. for 24 hours.
The pH of each sample was determined at 55° C. by use of a pH meter standardized at 55° C. The pH meter, electrode and standards were the same as described in Example 3.

[5] = Solubility of gacyclidine chloride salt and free base in water / Ringer's solution
Source text: The free base form of gacyclidine is poorly soluble in water and adheres to plastic surfaces.

[6] = Gacyclidine remaining in solution as a function of pH and excipients, 37° C., polypropylene vials
Procedure: This same procedure was conducted at 37° C., and the samples were maintained in polypropylene vials (VWR # 20170-710, 2 mL vial).

[7] = excess free base added to a solution at physiological pH
[8] = 0.1% SOLUTOL HS15, 37° C., polypropylene vials
[9] = 0.1% TWEEN 80, 37° C., polypropylene vials

Question: With `CC1CCCCC1(c1cccs1)N1CCCCC1.Cl` (centres unmarked) [gacyclidine, 1-(2-methyl-1-thiophen-2-yl-cyclohexyl)-piperidine hydrochloride] as the compound, how does the “gacyclidine remaining in solution at high pH” value ([1]; 0.1% CAPTISOL, 1 mM added, room temperature, two days, glass) read?
Answer: Its value is “about 14 μM”.

Question: And the “gacyclidine remaining in solution at high pH” value ([1]; 0.1% SOLUTOL HS15, 1 mM added, room temperature, two days, glass)?
Answer: Its value is about 96 μM.

Question: And the “gacyclidine remaining in solution at high pH” value ([1]; 0.1% TWEEN 80, 1 mM added, room temperature, two days, glass)?
Answer: The value was about 42 μM.

Question: What about the “gacyclidine base maintained in solution per gram of carrier molecule” value ([1]; CAPTISOL, room temperature) of the same compound?
Answer: Its value is 0.004 grams per gram of carrier mole.

Question: What about the “gacyclidine base maintained in solution per gram of carrier molecule” value ([1]; SOLUTOL HS 15, room temperature) of the same compound?
Answer: The value was 0.02 grams per gram of carrier mole.

Question: And the “gacyclidine base maintained in solution per gram of carrier molecule” value ([1]; TWEEN 80, room temperature)?
Answer: The value was 0.01 grams per gram of carrier mole.

Question: What about the solubility kinetic at 2 days ([1]; buffered aqueous solution, aqueous buffer, kinetic from dmso stock, pH 9.7, 1 mM added, room temperature, two days, glass, presence or absence of 0.1% SOLUPHOR P) of the same compound?
Answer: The solubility kinetic at 2 days was 2.6 µM.

Question: And the “pH above which precipitation of gacyclidine was observed” value ([1]; hydrochloride salt diluted to 1 mM in buffered aqueous solution)?
Answer: Its value is over 7.

Question: And the “gacyclidine remaining in solution, % of the added gacyclidine” value ([1]; pH 9.7, 1 mM added, room temperature, two days, glass, presence or absence of 0.1% SOLUPHOR P)?
Answer: Its value is 0.26%.

Question: And the solubility ([1]; thermodynamic from solid, hydrochloride salt, water, read-out: final concentration giving a clear solution in water)?
Answer: Its solubility is at least 550000 µM.

Question: What about the “piperidine formed from 100 μM gacyclidine” value ([2]; 0.3% polysorbate 80, Ringer's solution, 55° C., 24 hours, pH 6.7) of the same compound?
Answer: Its value is 4.5 µM.

Question: What about the “piperidine formed from 100 μM gacyclidine” value ([2]; 0.3% polysorbate 80, Ringer's solution, 55° C., 24 hours, pH 8.2) of the same compound?
Answer: The value was 0.92 µM.

Question: What about the “loss of gacyclidine due to precipitation” value ([2]; 0.3% polysorbate 80, Ringer's solution, 55° C., 24 hours, various pH) of the same compound?
Answer: Its value is “no loss of gacyclidine due to precipitation”.

Question: And the “decomposition rate as % of the acid form rate at 55° C.” value ([2]; 0.3% polysorbate 80, pH 6.7, 55° C.)?
Answer: Its value is 6.4%.

Question: And the “decomposition rate as % of the acid form rate at 55° C.” value ([2]; 0.3% polysorbate 80, pH 8.2, 55° C.)?
Answer: The value was 1.3%.

Question: What about the pKa ([3]; Ringer's Lactate solution, 37° C., from decomposition rates, read-out: apparent pKA) of the same compound?
Answer: The pKa was 7.6.

Question: And the “Time for 10% Loss (37° C., Ringer's Lactate)” value (shortened to “Time for 10% Loss”) ([3]; pH 5.5, 100 μM gacyclidine)?
Answer: Its value is 3.7 ± 0.1 days.

Question: And the “Time for 10% Loss” value ([3]; pH 6.0, 100 μM gacyclidine)?
Answer: Its value is 3.82 ± 0.03 days.

Question: And the “Time for 10% Loss” value ([3]; pH 7.4, 100 μM gacyclidine)?
Answer: Its value is 6.1 ± 0.4 days.

Question: What about the “decomposition rate as % of the rate expected for the acid form” value ([3]; pH 7.4, 37° C., Ringer's Lactate) of the same compound?
Answer: The value was 62%.

Question: What about the “fraction of gacyclidine in the acid form” value ([3]; pH 7.4 and 37° C.) of the same compound?
Answer: The value was 62%.

Question: What about the “loss of gacyclidine from solution” value [4] of the same compound?
Answer: The value was “loss of gacyclidine both by decomposition and by precipitation from solution”.

Question: What about the pH of solution ([5]; chloride salt, up to 150 mg/ml in water or unbuffered solution) of the same compound?
Answer: Its pH of solution is “about 4.4”.

Question: What about the “final concentration of dissolved gacyclidine” value [5, 7] of the same compound?
Answer: The value was at most 0.02 mg/mL.

Question: And the pH of solution [5, 7]?
Answer: The pH of solution was at most 7.7.

Question: What about the solubility ([5]; pH 4.4, chloride salt of the acid form, water or unbuffered Ringer's solution, read-out: solubility (solutions containing up to)) of the same compound?
Answer: The solubility was at most 150000 µg/mL.

Question: And the “gacyclidine remaining in solution (HPLC)” value ([5]; pH 9.5, 0.05 M CAPSO, 0.1 M NaCl, 0.3 mg/mL added, room temperature, 2 days)?
Answer: Its value is 0.0006 mg/mL.

Question: What about the solubility thermodynamic ([5]; saline or isotonic, thermodynamic from solid, free base in Ringer's solution reacting with dissolved carbon dioxide, pH 7.6) of the same compound?
Answer: Its solubility thermodynamic is about 20 µg/mL.

Question: What about the “solubility of the basic form with excipient” value ([6]; 0.1% CAPTISOL, 37° C., polypropylene containers) of the same compound?
Answer: Its value is “did not result in a clearly defined solubility”.

Question: What about the “gacyclidine retained in solution at high pH” value [6, 8] of the same compound?
Answer: Its value is about 32 μM.

Question: What about the “gacyclidine retained in solution at high pH, % of total gacyclidine added” value [6, 8] of the same compound?
Answer: Its value is about 3.2%.

Question: What about the “gacyclidine retained in solution at high pH” value [6, 9] of the same compound?
Answer: Its value is “about 20 μM”.

Question: And the “gacyclidine retained in solution at high pH, % of total gacyclidine added” value [6, 9]?
Answer: Its value is about 2.0%.

Question: What about the solubility kinetic at 2 days ([6]; buffered aqueous solution, aqueous buffer, pH 9.2, 37° C., polypropylene vials, presence or absence of 0.1% SOLUPHOR P) of the same compound?
Answer: Its solubility kinetic at 2 days is about 1 µM.

Question: And the “gacyclidine remaining in solution, % of the total gacyclidine added” value ([6]; pH 9.2, 37° C., polypropylene vials, presence or absence of 0.1% SOLUPHOR P)?
Answer: Its value is about 0.1%.
